Tests used:
Assay in all cases: Protocol A: diffusion on agar in Petri dishes
Type in all cases: cell-based
Enterococcus faecium = system: Enterococcus faecium
Experimental: (§1) The culture medium used was a mixture of 21 g/L of Muller-Hinton broth and 10 g/L of agar in water. This mixture was stirred and then left to boil. Next, a step of autoclaving of this mixture for 30 minutes was necessary in order to sterilize it before any manipulation. This culture medium was poured, while hot, into Petri dishes and then left to cool.
(§2) 5 milligrams of RhamOC4 were dissolved in 1 mL of DMSO. Twofold serial dilution with DMSO was then performed starting with the stock solution, so as to obtain the concentrations 2.5 g·L^−1, 1.25 g·L^−1, 0.625 g·L^−1 and 0.3125 g·L^−1.
(§3) The bacterial strains used were Pseudomonas aeruginosa, Escherichia coli, Enterococcus faecium and Staphylococcus aureus, in addition to the fungal strain Candida albicans. 10^6 bacteria were collected and then transferred into a 0.9% NaCl solution. Each Petri dish, containing the Muller-Hinton medium, was inoculated with a different bacterial suspension.
(§4) After having left the bacterial suspensions to dry on the agar, 10 μL of the test solution (RhamOC4), at various concentrations, were deposited on the surface of the agar inoculated with the bacterial suspension. 10 μL of DMSO were placed in each Petri dish as negative control.
(§5) The positive controls used were discs soaked with ampicillin for Escherichia coli and Enterococcus faecium, ceftazidim discs for Pseudomonas aeruginosa and vancomycin discs for Staphylococcus aureus.
(§6) After drying, the Petri dishes were finally incubated at 37° C. in an oven for 24 hours. The antibacterial activity was evaluated by measuring the clarification zone in mm around the place of deposition of the various concentrations of the test RhamOC4 solution.

Escherichia coli = system: Escherichia coli
Experimental: as §1, §2, §3, §4, §5, §6

Pseudomonas aeruginosa = system: Pseudomonas aeruginosa
Experimental: as §1, §2, §3, §4, §5, §6

Staphylococcus aureus = system: Staphylococcus aureus
Experimental: as §1, §2, §3, §4, §5, §6

Candida albicans = system: Candida albicans
Experimental: as §1, §2, §3, §4, §6

[1] = antibiotic disc, concentration not given

CC1(C)S[C@@H]2[C@H](NC(=O)[C@H](N)c3ccccc3)C(=O)N2[C@H]1C(=O)O [Ampicillin, ampicillin, reference compound]
Clarification zone, E. faecium, positive control (Enterococcus faecium; [1]): (26 mm) | Clarification zone, E. coli, positive control (Escherichia coli; [1]): (22 mm)

CC(C)(O/N=C(\C(=O)N[C@@H]1C(=O)N2C(C(=O)[O-])=C(C[n+]3ccccc3)CS[C@H]12)c1csc(N)n1)C(=O)O [Ceftazidim, ceftazidim, reference compound]
Clarification zone, P. aeruginosa, positive control (Pseudomonas aeruginosa; [1]): (28 mm)

CCCCO[C@@H]1O[C@@H](C)[C@H](O)[C@@H](O)[C@H]1O [RhamOC4, n-butyl α-L-rhamnopyranoside]
zone of inhibition at 0.3125 mg/mL (Enterococcus faecium; Enterococcus faecium, 0.3125 mg·mL^−1, 10 μL, 24 hours 37° C., read-out: Clarification zone, E. faecium): 0 mm | zone of inhibition at 0.625 mg/mL (Enterococcus faecium; Enterococcus faecium, 0.625 mg·mL^−1, 10 μL, 24 hours 37° C., read-out: Clarification zone, E. faecium): 0 mm | zone of inhibition at 1.25 mg/mL (Enterococcus faecium; Enterococcus faecium, 1.25 mg·mL^−1, 10 μL, 24 hours 37° C., read-out: Clarification zone, E. faecium): 0 mm | zone of inhibition at 2.5 mg/mL (Enterococcus faecium; Enterococcus faecium, 2.5 mg·mL^−1, 10 μL, 24 hours 37° C., read-out: Clarification zone, E. faecium): 4 mm | zone of inhibition at 5 µg/mL (Enterococcus faecium; Enterococcus faecium, 5 mg·mL^−1, 10 μL, 24 hours 37° C., read-out: Clarification zone, E. faecium): 6 mm | zone of inhibition at 0.3125 mg/mL (Escherichia coli; Escherichia coli, 0.3125 mg·mL^−1, 10 μL, 24 hours 37° C., read-out: Clarification zone, E. coli): 0 mm | zone of inhibition at 0.625 mg/mL (Escherichia coli; Escherichia coli, 0.625 mg·mL^−1, 10 μL, 24 hours 37° C., read-out: Clarification zone, E. coli): 0 mm | zone of inhibition at 1.25 mg/mL (Escherichia coli; Escherichia coli, 1.25 mg·mL^−1, 10 μL, 24 hours 37° C., read-out: Clarification zone, E. coli): 0 mm | zone of inhibition at 2.5 mg/mL (Escherichia coli; Escherichia coli, 2.5 mg·mL^−1, 10 μL, 24 hours 37° C., read-out: Clarification zone, E. coli): 4 mm | zone of inhibition at 5 mg/mL (Escherichia coli; Escherichia coli, 5 mg·mL^−1, 10 μL, 24 hours 37° C., read-out: Clarification zone, E. coli): 9 mm | zone of inhibition at 0.3125 mg/mL (Pseudomonas aeruginosa; Pseudomonas aeruginosa, 0.3125 mg·mL^−1, 10 μL, 24 hours 37° C., read-out: Clarification zone, P. aeruginosa): 0 mm | zone of inhibition at 0.625 mg/mL (Pseudomonas aeruginosa; Pseudomonas aeruginosa, 0.625 mg·mL^−1, 10 μL, 24 hours 37° C., read-out: Clarification zone, P. aeruginosa): 0 mm | zone of inhibition at 1.25 mg/mL (Pseudomonas aeruginosa; Pseudomonas aeruginosa, 1.25 mg·mL^−1, 10 μL, 24 hours 37° C., read-out: Clarification zone, P. aeruginosa): 0 mm | zone of inhibition at 2.5 mg/mL (Pseudomonas aeruginosa; Pseudomonas aeruginosa, 2.5 mg·mL^−1, 10 μL, 24 hours 37° C., read-out: Clarification zone, P. aeruginosa): 0 mm | zone of inhibition at 5 mg/mL (Pseudomonas aeruginosa; Pseudomonas aeruginosa, 5 mg·mL^−1, 10 μL, 24 hours 37° C., read-out: Clarification zone, P. aeruginosa): 4 mm | Inhibitory power on growth of Pseudomonas aeruginosa (Pseudomonas aeruginosa; summary of agar diffusion): poor inhibitory power | zone of inhibition at 0.3125 mg/mL (Staphylococcus aureus; Staphylococcus aureus, 0.3125 mg·mL^−1, 10 μL, 24 hours 37° C., read-out: Clarification zone, S. aureus): 0 mm | zone of inhibition at 0.625 mg/mL (Staphylococcus aureus; Staphylococcus aureus, 0.625 mg·mL^−1, 10 μL, 24 hours 37° C., read-out: Clarification zone, S. aureus): 0 mm | zone of inhibition at 1.25 mg/mL (Staphylococcus aureus; Staphylococcus aureus, 1.25 mg·mL^−1, 10 μL, 24 hours 37° C., read-out: Clarification zone, S. aureus): 5 mm | zone of inhibition at 2.5 mg/mL (Staphylococcus aureus; Staphylococcus aureus, 2.5 mg·mL^−1, 10 μL, 24 hours 37° C., read-out: Clarification zone, S. aureus): 5 mm | zone of inhibition at 5 mg/mL (Staphylococcus aureus; Staphylococcus aureus, 5 mg·mL^−1, 10 μL, 24 hours 37° C., read-out: Clarification zone, S. aureus): 10.5 mm | Capacity to inhibit growth of Staphylococcus aureus (Staphylococcus aureus; summary of agar diffusion): very good capacity to inhibit the growth | zone of inhibition at 0.3125 mg/mL (Candida albicans; Candida albicans, 0.3125 mg·mL^−1, 10 μL, 24 hours 37° C., read-out: Clarification zone, C. albicans): 0 mm | zone of inhibition at 0.625 mg/mL (Candida albicans; Candida albicans, 0.625 mg·mL^−1, 10 μL, 24 hours 37° C., read-out: Clarification zone, C. albicans): 0 mm | zone of inhibition at 1.25 mg/mL (Candida albicans; Candida albicans, 1.25 mg·mL^−1, 10 μL, 24 hours 37° C., read-out: Clarification zone, C. albicans): 5 mm | zone of inhibition at 2.5 mg/mL (Candida albicans; Candida albicans, 2.5 mg·mL^−1, 10 μL, 24 hours 37° C., read-out: Clarification zone, C. albicans): 14 mm | zone of inhibition at 5 mg/mL (Candida albicans; Candida albicans, 5 mg·mL^−1, 10 μL, 24 hours 37° C., read-out: Clarification zone, C. albicans): 18 mm | Capacity to inhibit growth of Candida albicans (Candida albicans; summary of agar diffusion): very good capacity to inhibit the growth

CN[C@H](CC(C)C)C(=O)N[C@H]1C(=O)N[C@@H](CC(N)=O)C(=O)N[C@H]2C(=O)N[C@H]3C(=O)N[C@H](C(=O)N[C@H](C(=O)O)c4cc(O)cc(O)c4-c4cc3ccc4O)[C@H](O)c3ccc(c(Cl)c3)Oc3cc2cc(c3O[C@@H]2O[C@H](CO)[C@@H](O)[C@H](O)[C@H]2O[C@H]2C[C@](C)(N)[C@H](O)[C@H](C)O2)Oc2ccc(cc2Cl)[C@H]1O [Vancomycin, vancomycin, reference compound]
Clarification zone, S. aureus, positive control (Staphylococcus aureus; [1]): (19 mm)
